Each structure is given as a SMILES string.

For the assay, the target named is TARP γ8 dependent AMPA receptor (GluA1o-g8 fusion channel) (Homo sapiens (Human), UniProt P42261+Q8WXS5). Briefly: Calcium flux assay (FLIPR), HEK293 cells expressing GRIA1o-CACNG8 fusion. The assay is classed as cell-based. The note with it: inhibition of calcium flux after 15 μM glutamate, read-out: GluR1-γ8 pIC50 (converted). From the text: This assay was used to test compounds for their ability to inhibit TARP γ8 dependent AMPA receptor activity.
Chain of TARP γ8 dependent AMPA receptor (GluA1o-g8 fusion channel) (P42261 other isoform, or with tags, fused parts or gaps): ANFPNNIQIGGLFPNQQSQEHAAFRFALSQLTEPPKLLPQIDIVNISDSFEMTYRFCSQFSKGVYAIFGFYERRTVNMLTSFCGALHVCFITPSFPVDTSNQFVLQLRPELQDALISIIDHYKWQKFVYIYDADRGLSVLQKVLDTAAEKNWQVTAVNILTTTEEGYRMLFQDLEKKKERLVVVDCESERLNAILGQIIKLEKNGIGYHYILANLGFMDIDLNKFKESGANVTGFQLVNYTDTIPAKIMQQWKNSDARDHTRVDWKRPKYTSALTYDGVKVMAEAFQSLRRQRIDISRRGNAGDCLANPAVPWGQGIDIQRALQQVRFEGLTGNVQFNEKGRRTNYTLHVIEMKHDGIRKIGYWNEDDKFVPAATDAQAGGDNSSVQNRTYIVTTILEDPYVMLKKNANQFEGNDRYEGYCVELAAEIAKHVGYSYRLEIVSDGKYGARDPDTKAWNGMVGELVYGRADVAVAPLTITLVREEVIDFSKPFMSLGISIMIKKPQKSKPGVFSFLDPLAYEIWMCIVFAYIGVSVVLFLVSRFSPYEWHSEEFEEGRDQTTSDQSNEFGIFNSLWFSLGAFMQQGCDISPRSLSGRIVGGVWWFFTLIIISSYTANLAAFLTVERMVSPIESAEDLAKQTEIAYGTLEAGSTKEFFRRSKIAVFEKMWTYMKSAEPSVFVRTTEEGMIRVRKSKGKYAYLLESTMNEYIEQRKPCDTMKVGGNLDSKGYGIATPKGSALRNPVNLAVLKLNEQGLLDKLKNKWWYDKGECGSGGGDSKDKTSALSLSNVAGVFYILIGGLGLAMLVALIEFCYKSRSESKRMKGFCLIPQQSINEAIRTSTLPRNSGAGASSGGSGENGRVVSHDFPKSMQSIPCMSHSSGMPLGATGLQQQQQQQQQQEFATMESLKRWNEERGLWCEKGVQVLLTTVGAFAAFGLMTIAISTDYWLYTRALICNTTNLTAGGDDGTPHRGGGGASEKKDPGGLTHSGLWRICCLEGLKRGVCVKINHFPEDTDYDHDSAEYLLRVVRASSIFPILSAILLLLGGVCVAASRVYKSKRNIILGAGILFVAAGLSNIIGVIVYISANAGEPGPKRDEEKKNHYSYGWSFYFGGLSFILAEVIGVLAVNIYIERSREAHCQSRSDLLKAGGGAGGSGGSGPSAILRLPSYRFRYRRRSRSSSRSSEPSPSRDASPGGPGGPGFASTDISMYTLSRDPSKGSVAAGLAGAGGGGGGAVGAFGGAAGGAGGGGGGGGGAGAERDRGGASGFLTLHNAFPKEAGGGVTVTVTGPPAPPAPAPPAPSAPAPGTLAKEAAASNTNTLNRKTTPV
An in vitro assay was used to determine the potency of test compounds as inhibitors of the glutamate response of the channel formed by GluA1o-g8. To ensure a 1:1 stoichiometry of GluA1o and g8 subunits in the expressed channel, a fusion of the cDNAs for GRIA1o and CACNG8 was used. […] A clonal cell line in HEK293 cells stably expressing this construct, with a geneticin selection marker, was generated for use in this assay. Cell expressing the GRIAlo-CACNG8 fusion construct were grown in a monolayer in 96- or 384-well microtiter plates. […] The cells were then loaded with a calcium-sensitive dye (Calcium-5 or Calcium-6, Molecular Devices) and the test compounds at a range of concentrations.
The fluorescence in each well was normalized to the fluorescence of negative and positive control wells. […] The responses to glutamate as functions of the test compound concentrations were fitted to a four-parameter logistic function. The fitted parameter corresponding to the midpoint was taken to be the potency of inhibition of the compound.
A general note: Calcium assays in cells follow changes in intracellular calcium, usually with a dye or a luminescent sensor.
Turning to `N#Cc1c(-c2ccc3[nH]c(=O)[nH]c3c2)cccc1C(F)(F)F` [Example 65, 2-(2-Oxo-1,3-dihydrobenzimidazol-5-yl)-6-(trifluoromethyl)benzonitrile], the IC50 was 1260 nM.

Take `Cc1c(CN2CCOC(C)(C)C2)cccc1-c1ccc2[nH]c(=O)[nH]c2c1` [Example 149, 5-[3-[(2,2-Dimethylmorpholin-4-yl)methyl]-2-methyl-phenyl]-1,3-dihydrobenzimidazol-2-one]: the IC50 was 20 nM.

Consider `Cc1c(CN2CC3CC(C2)O3)cccc1-c1ccc2[nH]c(=O)[nH]c2c1` [Example 158, 5-[2-Methyl-3-(6-oxa-3-azabicyclo[3;1;1]heptan-3-ylmethyl)phenyl]-1,3-dihydrobenzimidazol-2-one], for which the IC50 was 6310 nM.

As to `Cc1c(CN2CC(F)C2)cccc1-c1ccc2[nH]c(=O)[nH]c2c1` [Example 157, 5-[3-[(3-Fluoroazetidin-1-yl)methyl]-2-methyl-phenyl]-1,3-dihydrobenzimidazol-2-one], the IC50 is 6310 nM. Next, `CN1CCN(Cc2cccc(Cl)c2-c2ccc3[nH]c(=O)[nH]c3c2)CC1` [Example 146, 5-[2-Chloro-6-[(4-methylpiperazin-1-yl)methyl]phenyl]-1,3-dihydrobenzimidazol-2-one]: 7940 nM.

As for `N#CC1(c2cccc(Cl)c2-c2ccc3[nH]c(=O)[nH]c3c2)CC1` [Example 128, 1-[3-Chloro-2-(2-oxo-1,3-dihydrobenzimidazol-5-yl)phenyl]cyclopropanecarbonitrile], the IC50 is 398 nM. Under `COc1cccc(OCC(F)F)c1-c1ccc2[nH]c(=O)[nH]c2c1` [Example 102, 5-[2-(2,2-Difluoroethoxy)-6-methoxy-phenyl]-1,3-dihydrobenzimidazol-2-one] stands 398 nM. Next, `Cc1ccc(OCC(C)C)c(-c2ccc3[nH]c(=O)[nH]c3c2)c1` [Example 15, 5-(2-Isobutoxy-5-methyl-phenyl)-1,3-dihydrobenzimidazol-2-one]: 31.6 nM; `Cc1c(-c2ccc3[nH]c(=O)[nH]c3c2)cccc1C(F)(F)F` [Example 60, 5-[2-Methyl-3-(trifluoromethyl)phenyl]-1,3-dihydrobenzimidazol-2-one]: 79.4 nM.

As to `Cn1cc(-c2cccc(-c3ccc4[nH]c(=O)sc4c3)c2Cl)cn1` [Example 212, 6-(2-Chloro-3-(1-methyl-1H-pyrazol-4-yl)phenyl)benzo[d]thiazol-2(3H)-one], the IC50 is 200 nM.

With `COc1cccc(OC(C)C)c1-c1ccc2[nH]c(=O)[nH]c2c1` [Example 28, 5-(2-Isopropoxy-6-methoxy-phenyl)-1,3-dihydrobenzimidazol-2-one], the IC50 is 79.4 nM. Take `Cc1noc(-c2cccc(-c3ccc4[nH]c(=O)[nH]c4c3)c2C)n1` [Example 203, 5-[2-Methyl-3-(3-methyl-1,2,4-oxadiazol-5-yl)phenyl]-1,3-dihydrobenzimidazol-2-one]: the IC50 is 39.8 nM. Turning to `Cc1nc(-c2cccc(-c3ccc4[nH]c(=O)sc4c3)c2C)no1` [Example 72, 6-[2-Methyl-3-(5-methyl-1,2,4-oxadiazol-3-yl)phenyl]-3H-1,3-benzothiazol-2-one], the IC50 was 794 nM.

For `Cc1c(-c2ccc3[nH]c(=O)[nH]c3c2)cccc1-c1noc(-c2ccncc2)n1` [Example 75, 5-[2-Methyl-3-[5-(4-pyridyl)-1,2,4-oxadiazol-3-yl]phenyl]-1,3-dihydrobenzimidazol-2-one], the IC50 is 20 nM. For the compound `Cc1nc(-c2cccc(-c3ccc4[nH]c(=O)[nH]c4c3)c2C)no1` [Example 71, 5-[2-Methyl-3-(5-methyl-1,2,4-oxadiazol-3-yl)phenyl]-1,3-dihydrobenzimidazol-2-one], the IC50 was 50.1 nM.

For `Cc1c(CN2CCOCC2C)cccc1-c1ccc2[nH]c(=O)[nH]c2c1` (stereo in doubt) [Example 153, (3S)-5-[2-Methyl-3-[[3-methylmorpholin-4-yl]methyl]phenyl]-1,3-dihydrobenzimidazol-2-one], the IC50 is 316 nM.

For the compound `Cc1c(-c2ccc3[nH]c(=O)[nH]c3c2)cccc1-c1ncno1` [Example 199, 5-[2-Methyl-3-(1,2,4-oxadiazol-5-yl)phenyl]-1,3-dihydrobenzimidazol-2-one], the IC50 is 63.1 nM. Next, `Cc1ccc(Cl)cc1-c1ccc2[nH]c(=O)[nH]c2c1` [Example 10, 5-(5-Chloro-2-methyl-phenyl)-1,3-dihydrobenzimidazol-2-one]: 251 nM.

As to `COc1cccc(OC(C)C)c1-c1ccc2[nH]c(=O)sc2c1` [Example 77, 6-(2-Isopropoxy-6-methoxy-phenyl)-3H-1,3-benzothiazol-2-one], the IC50 is 12.6 nM. Under `Cc1ccnc(Cl)c1-c1ccc2[nH]c(=O)[nH]c2c1` [Example 70, 5-(2-Chloro-4-methyl-3-pyridyl)-1,3-dihydrobenzimidazol-2-one] stands 794 nM; under `O=c1[nH]c2ccc(-c3ccccc3Oc3ccccc3)cc2[nH]1` [Example 24, 5-(2-Phenoxyphenyl)-1,3-dihydrobenzimidazol-2-one], 501 nM. Regarding `O=c1[nH]c2ccc(-c3cc(Cl)ccc3Cl)cc2[nH]1` [Example 18, 5-(2,5-Dichlorophenyl)-1,3-dihydrobenzimidazol-2-one], the IC50 was 251 nM.

As to `COC(=O)c1cccc(C)c1-c1ccc2[nH]c(=O)[nH]c2c1` [Example 45, Methyl 3-methyl-2-(2-oxo-1,3-dihydrobenzimidazol-5-yl)benzoate], the IC50 was 251 nM.

Regarding `Cc1nnc(-c2cccc(-c3ccc4[nH]c(=O)[nH]c4c3)c2Cl)o1` [Example 191, 5-[2-Chloro-3-(5-methyl-1,3,4-oxadiazol-2-yl)phenyl]-1,3-dihydrobenzimidazol-2-one], the IC50 is 2000 nM. With `COC(=O)c1cccc(Cl)c1-c1ccc2[nH]c(=O)[nH]c2c1` [Example 42, Methyl 3-chloro-2-(2-oxo-1,3-dihydrobenzimidazol-5-yl)benzoate], the IC50 is 501 nM.

Regarding `CC(C)Oc1cccc(-c2ccc3[nH]c(=O)[nH]c3c2)c1Cl` [Example 110, 5-(2-Chloro-3-isopropoxy-phenyl)-1,3-dihydrobenzimidazol-2-one], the IC50 is 31.6 nM. Regarding `O=c1[nH]c2ccc(-c3cccc(C(F)(F)F)c3Cl)cc2[nH]1` [Example 61, 5-[2-Chloro-3-(trifluoromethyl)phenyl]-1,3-dihydrobenzimidazol-2-one], the IC50 was 39.8 nM. `C=Cc1cccc(Cl)c1-c1ccc2[nH]c(=O)[nH]c2c1` [Example 161, 5-(2-Chloro-6-vinyl-phenyl)-1,3-dihydrobenzimidazol-2-one]: the IC50 was 31.6 nM. In the case of `O=c1[nH]c2ccc(-c3c(Cl)cccc3-c3ccncc3)cc2[nH]1` [Example 170, 5-[2-Chloro-6-(4-pyridyl)phenyl]-1,3-dihydrobenzimidazol-2-one], the IC50 is 316 nM. As for `Cc1c(-c2ccc3[nH]c(=O)[nH]c3c2)cccc1-c1nc(C2CC2)no1` [Example 201, 5-(3-(3-cyclopropyl-1,2,4-oxadiazol-5-yl)-2-methylphenyl)-1H-benzo[d]imidazol-2(3H)-one], the IC50 was 10 nM. With `O=c1[nH]c2ccc(-c3cccc(-c4ccncc4)c3Cl)cc2[nH]1` [Example 184, 5-[2-Chloro-3-(4-pyridyl)phenyl]-1,3-dihydrobenzimidazol-2-one], the IC50 was 126 nM. As to `CN(C)c1cccc(-c2ccc3[nH]c(=O)[nH]c3c2)c1Cl` [Example 189, 5-[2-Chloro-3-(dimethylamino)phenyl]-1,3-dihydrobenzimidazol-2-one], the IC50 is 3980 nM. Under `CC(C)(C)Oc1cccc(Cl)c1-c1ccc2[nH]c(=O)[nH]c2c1` [Example 116, 5-(2-tert-Butoxy-6-chloro-phenyl)-1,3-dihydrobenzimidazol-2-one] stands 158 nM; under `O=C(c1ccc(Cl)c(-c2ccc3[nH]c(=O)[nH]c3c2)c1)N1CCCC1` [Example 84, 5-[2-Chloro-5-(pyrrolidine-1-carbonyl)phenyl]-1,3-dihydrobenzimidazol-2-one], 7940 nM. In the case of `Cc1c(CN2CCSCC2)cccc1-c1ccc2[nH]c(=O)[nH]c2c1` [Example 154, 5-[2-Methyl-3-(thiomorpholinomethyl)phenyl]-1,3-dihydrobenzimidazol-2-one], the IC50 was 200 nM. Turning to `O=c1[nH]c2ccc(-c3c(Cl)cccc3CN3CCOCC3)cc2[nH]1` [Example 145, 5-[2-Chloro-6-(morpholinomethyl)phenyl]-1,3-dihydrobenzimidazol-2-one], the IC50 is 1000 nM. `COc1cccc(C)c1-c1ccc2[nH]c(=O)[nH]c2c1` [Example 55]: the IC50 was 794 nM. Consider `O=c1[nH]c2ccc(-c3c(Cl)cc(F)cc3Cl)cc2[nH]1` [Example 50, 5-(2,6-Dichloro-4-fluoro-phenyl)-1,3-dihydrobenzimidazol-2-one], for which the IC50 is 158 nM. Under `N#CCc1cccc(-c2ccccc2F)c1-c1ccc2[nH]c(=O)[nH]c2c1` [Example 136, 2-[3-(2-Fluorophenyl)-2-(2-oxo-1,3-dihydrobenzimidazol-5-yl)phenyl]acetonitrile] stands 158 nM; under `N#Cc1ccc(-c2cccc(Cl)c2-c2ccc3[nH]c(=O)[nH]c3c2)cc1` [Example 164, 4-[3-Chloro-2-(2-oxo-1,3-dihydrobenzimidazol-5-yl)phenyl]benzonitrile], 39.8 nM.

The values above are taken from patent US10611730B2, “Benzimidazolone and benzothiazolone compounds and their use as AMPA receptor modulators” (Janssen Pharmaceutica NV, priority 2015, dated 2020).
